Results reported in patent US11191762B2, “Alkyl substituted triazole compounds as agonists of the APJ Receptor” (priority 2016, dated 2021).

target: human APJ receptor (Homo sapiens (Human), UniProt P35414); assay: biochemical; format: biochemical; conditions: [35S]GTPγS binding, membranes from CHO cells stably expressing human APJ receptor; read-out: Activity hAPJ SPA EC50 IP
Protocol: The human APJ receptor was cloned by polymerase chain reaction and the gene encoding the receptor was subcloned in pFLAG-CMV™-3 expression vector (Sigma, Saint Louis, Mo. USA) in-house at Amgen. A GTPγS binding assay was performed on membranes prepared from CHO cells stably expressing human APJ receptor. The optimum experimental conditions for the concentrations of GDP, MgCl2, and NaCl in the assay buffer were initially determined. The assay was performed in 9 μL assay buffer [20 mM HEPES, pH 7.5, 5 mM MgCl2, 100 mM NaCl and 0.1% (w/v) BSA], 1 μL of diluted test compound (starting with 0.75 mM, 2-fold serial dilution with DMSO, total 22 points), 10 μL of 18 µM GDP (final concentration of 3 μM GDP), 20 μL of […] membrane protein expressing human APJ receptor captured with WGA PS beads (final concentration of 5 μg per well), and 20 μL of 0.3 nM [^35S]GTPγS (final concentration is 0.1 nM [^35S]GTPγS)(Perkin Elmer Life and Analytical Sciences, Waltham USA).

Sequence of human APJ receptor (P35414 whole entry): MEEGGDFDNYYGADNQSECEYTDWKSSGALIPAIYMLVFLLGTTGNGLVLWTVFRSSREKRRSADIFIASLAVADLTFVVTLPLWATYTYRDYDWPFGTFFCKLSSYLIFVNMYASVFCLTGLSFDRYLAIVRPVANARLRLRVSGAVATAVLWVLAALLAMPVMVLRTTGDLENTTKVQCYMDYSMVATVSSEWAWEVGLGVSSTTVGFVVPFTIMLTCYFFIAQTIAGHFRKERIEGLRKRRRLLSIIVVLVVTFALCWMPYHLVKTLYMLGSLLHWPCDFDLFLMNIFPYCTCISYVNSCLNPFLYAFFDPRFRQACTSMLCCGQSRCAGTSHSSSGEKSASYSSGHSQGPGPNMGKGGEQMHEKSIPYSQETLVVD

Row | Structure (SMILES) | EC50
1 | COc1cccc(OC)c1-n1c(NS(=O)(=O)[C@@H](C)[C@H](C)c2ncc(C)cn2)nnc1[C@@H](OC)c1ccccc1 [Example 19.0, (2S,3R)-N-(4-(2,6-dimethoxyphenyl)-5-((S)-methoxy(phenyl)methyl)-4H-1,2,4-triazol-3-yl)-3-(5-methyl-2-pyrimidinyl)-2-butanesulfonamide] | 200 nM
2 | COc1cccc(OC)c1-n1c(Cc2ccc(C)cn2)nnc1NS(=O)(=O)[C@@H](C)[C@H](C)c1ncc(C)cn1 [Example 20.0, (2S,3R)-N-(4-(2,6-dimethoxyphenyl)-5-((5-methyl-2-pyridinyl)methyl)-4H-1,2,4-triazol-3-yl)-3-(5-methyl-2-pyrimidinyl)-2-butanesulfonamide] | > 4200 nM
3 | COc1ncnc(OC)c1-n1c(Cc2ccccc2)nnc1NS(=O)(=O)[C@@H](C)[C@H](C)c1ncc(Cl)cn1 [Example 21.0, (2S,3R)-N-(5-benzyl-4-(4,6-dimethoxy-5-pyrimidinyl)-4H-1,2,4-triazol-3-yl)-3-(5-chloro-2-pyrimidinyl)-2-butanesulfonamide] | 120 nM
4 | COc1ncnc(OC)c1-n1c(Cc2ccccc2)nnc1NS(=O)(=O)[C@@H](C)[C@H](OC)c1ncc(Cl)cn1 [Example 22.0, (1R,2S)-N-(5-benzyl-4-(4,6-dimethoxy-5-pyrimidinyl)-4H-1,2,4-triazol-3-yl)-1-(5-chloro-2-pyrimidinyl)-1-methoxy-2-propanesulfonamide] | 120 nM
5 | COc1ncnc(OC)c1-n1c(Cc2ccccc2)nnc1NS(=O)(=O)[C@@H](C)[C@H](C)c1ncc(C)cn1 [Example 23.0, (2S,3R)-N-(5-benzyl-4-(4,6-dimethoxy-5-pyrimidinyl)-4H-1,2,4-triazol-3-yl)-3-(5-methyl-2-pyrimidinyl)-2-butanesulfonamide] | 400 nM
6 | COc1ncnc(OC)c1-n1c(CC2CCC2)nnc1NS(=O)(=O)[C@@H](C)[C@H](OC)c1ncc(Cl)cn1 [Example 24.0, (1R,2S)-1-(5-chloro-2-pyrimidinyl)-N-(5-(cyclobutylmethyl)-4-(4,6-dimethoxy-5-pyrimidinyl)-4H-1,2,4-triazol-3-yl)-1-methoxy-2-propanesulfonamide] | 1.5 nM
7 | CO[C@H](c1ncc(Cl)cn1)[C@H](C)S(=O)(=O)Nc1nnc(CC2CCC2)n1C1CCOCC1 [Example 25.0, (1R,2S)-1-(5-chloro-2-pyrimidinyl)-N-(5-(cyclobutylmethyl)-4-(tetrahydro-2H-pyran-4-yl)-4H-1,2,4-triazol-3-yl)-1-methoxy-2-propanesulfonamide] | 370 nM
8 | COc1cccc(OC)c1-n1c(C)nnc1NS(=O)(=O)[C@@H](C)[C@H](OC)c1ncc(C)cn1 [Example 26.0, (1R,2S)-N-(4-(2,6-dimethoxyphenyl)-5-methyl-4H-1,2,4-triazol-3-yl)-1-methoxy-1-(5-methylpyrimidin-2-yl)propane-2-sulfonamide] | 120 nM
9 | COc1ncnc(OC)c1-n1c(CC2CC2)nnc1NS(=O)(=O)[C@@H](C)[C@H](OC)c1ncc(Cl)cn1 [Example 27.0, (1R,2S)-1-(5-chloro-2-pyrimidinyl)-N-(5-(cyclopropylmethyl)-4-(4,6-dimethoxy-5-pyrimidinyl)-4H-1,2,4-triazol-3-yl)-1-methoxy-2-propanesulfonamide] | 7.6 nM
10 | COc1ncnc(OC)c1-n1c(CC2CCCC2)nnc1NS(=O)(=O)[C@@H](C)[C@H](OC)c1ncc(Cl)cn1 [Example 28.0, (1R,2S)-1-(5-chloro-2-pyrimidinyl)-N-(5-(cyclopentylmethyl)-4-(4,6-dimethoxy-5-pyrimidinyl)-4H-1,2,4-triazol-3-yl)-1-methoxy-2-propanesulfonamide] | 4.5 nM
11 | COc1ncnc(OC)c1-n1c(CC2CCCCC2)nnc1NS(=O)(=O)[C@@H](C)[C@H](OC)c1ncc(Cl)cn1 [Example 29.0, (1R,2S)-1-(5-chloro-2-pyrimidinyl)-N-(5-(cyclohexylmethyl)-4-(4,6-dimethoxy-5-pyrimidinyl)-4H-1,2,4-triazol-3-yl)-1-methoxy-2-propanesulfonamide] | 21 nM
12 | COCc1nnc(NS(=O)(=O)[C@@H](C)[C@@H](OC(C)C)c2ncc(C)cn2)n1-c1c(F)cccc1F [Example 30.0, (1S,2S)-N-(4-(2,6-difluorophenyl)-5-(methoxymethyl)-4H-1,2,4-triazol-3-yl)-1-(1-methylethoxy)-1-(5-methyl-2-pyrimidinyl)-2-propanesulfonamide] | 240 nM
13 | COc1ncnc(OC)c1-n1c(CC(C)C)nnc1NS(=O)(=O)[C@@H](C)[C@H](OC)c1ncc(Cl)cn1 [Example 31.0, (1R,2S)-1-(5-chloro-2-pyrimidinyl)-N-(4-(4,6-dimethoxy-5-pyrimidinyl)-5-(2-methylpropyl)-4H-1,2,4-triazol-3-yl)-1-methoxy-2-propanesulfonamide] | 7.6 nM
14 | COCCc1nnc(NS(=O)(=O)[C@@H](C)[C@H](C)c2ncc(Cl)cn2)n1-c1c(OC)cccc1OC [Example 32.0, (2S,3R)-3-(5-chloro-2-pyrimidinyl)-N-(4-(2,6-dimethoxyphenyl)-5-(2-methoxyethyl)-4H-1,2,4-triazol-3-yl)-2-butanesulfonamide] | 10 nM
15 | COc1ncnc(OC)c1-n1c(CC2COC2)nnc1NS(=O)(=O)[C@@H](C)[C@H](C)c1ncc(Cl)cn1 [Example 33.0, (2S,3R)-3-(5-chloro-2-pyrimidinyl)-N-(4-(4,6-dimethoxy-5-pyrimidinyl)-5-(3-oxetanylmethyl)-4H-1,2,4-triazol-3-yl)-2-butanesulfonamide] | 210 nM
16 | COc1cccc(OC)c1-n1c(CC2COC2)nnc1NS(=O)(=O)[C@@H](C)[C@H](C)c1ncc(Cl)cn1 [Example 34.0, (2S,3R)-3-(5-chloro-2-pyrimidinyl)-N-(4-(2,6-dimethoxyphenyl)-5-(3-oxetanylmethyl)-4H-1,2,4-triazol-3-yl)-2-butanesulfonamide] | 16 nM
17 | COc1cccc(OC)c1-n1c(Cc2ccccn2)nnc1NS(=O)(=O)[C@@H](C)[C@H](C)c1ncc(Cl)cn1 [Example 35.0, (2S,3R)-3-(5-chloro-2-pyrimidinyl)-N-(4-(2,6-dimethoxyphenyl)-5-(2-pyridinylmethyl)-4H-1,2,4-triazol-3-yl)-2-butanesulfonamide] | 32 nM
18 | COc1cccc(OC)c1-n1c(CCc2ccco2)nnc1NS(=O)(=O)[C@@H](C)[C@H](C)c1ncc(Cl)cn1 [Example 36.0, (2S,3R)-3-(5-chloro-2-pyrimidinyl)-N-(4-(2,6-dimethoxyphenyl)-5-(2-(2-furanyl)ethyl)-4H-1,2,4-triazol-3-yl)-2-butanesulfonamide] | 2.9 nM
19 | COc1cccc(OC)c1-n1c(CS(C)(=O)=O)nnc1NS(=O)(=O)[C@@H](C)[C@H](C)c1ncc(Cl)cn1 [Example 37.0, (2S,3R)-3-(5-chloro-2-pyrimidinyl)-N-(4-(2,6-dimethoxyphenyl)-5-((methylsulfonyl)methyl)-4H-1,2,4-triazol-3-yl)-2-butanesulfonamide] | 340 nM
20 | COc1cccc(OC)c1-n1c(Cc2ccsc2)nnc1NS(=O)(=O)[C@@H](C)[C@H](C)c1ncc(Cl)cn1 [Example 38.0, (2S,3R)-3-(5-chloro-2-pyrimidinyl)-N-(4-(2,6-dimethoxyphenyl)-5-(3-thiophenylmethyl)-4H-1,2,4-triazol-3-yl)-2-butanesulfonamide] | 6 nM
